Tests used:
HL-60 cells = assay: Migration of HL-60 cell line toward THP-1 culture supernatant (transmigration assay); type: cell-based, human; conditions: supernatant of THP-1 cells treated with sample 100 μg/ml 1 h, then Gemcitabine 2 μg/ml 24 h
Method in brief: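 THP-1 cells pretreated 1 h with compounds, then stimulated with gemcitabine (2 μg/ml) for 24 h; supernatant placed in lower chamber. HL-60 cells (5×10^4/chamber) migrated through laminin I-coated upper chamber; migrated cells quantified by Calcein-AM fluorescence converted to cell number.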

IL-4 = assay: PKC activator-induced IL-4 secretion reduction in EL-4 cells (ELISA); type: cell-based, mouse; conditions: sample 100 μg/ml 2 h, then PKC activator 18 h, Table 11
Method: In DMEM (Dulbecco Modified Eagle Medium, Hyclone, Thermo Scientific) medium to which 10% Fetal Bovine Serum was added, EL-4 cells, a mouse lymphoma family, were subcultured at a concentration of 1×10^5 cells/ml, and culture was conducted in a 5% CO2 humidified incubator at 37° C. The cultured EL-4 cells were inoculated into a 48 well plate by 5×10^4 cells/ml and stabilized for 30 hours. Then, the culture solution was treated with a glycerol derivative compounds of the type shown in Table 11 and 12 below for 2 hours. Thereafter, it were treated with 0.5 μg/ml of PKC activator (p10, some kind of PMA) of a cell stimulator, and subsequent further incubation were conducted for 18 hours. Thereafter 0.5 ml of the culture supernatant was collected for each well and centrifuged (at 3000 rpm, 5 minutes) to recover the supernatant. The IL-4 level in the recovered supernatant was measured according to the manual provided by the Mouse IL-4 ELISA set (BD Biosciences). The day before ELISA was carried out, the IL-4 capture antibody was diluted in phosphate buffered saline, coated on a microwell, and then stored at 4° C. overnight. Each well was washed three times with a buffer solution and then blocked with 2% Bovine Serum Albumin (BSA) for 1 hour at room temperature. After washing with buffer solution three times, 100 μl of sample was dispensed into each well and left at room temperature for 2 hours. Detection antibody which was washed 3 times with washing buffer solution and diluted was dispensed into each well and allowed to react at room temperature for 1 hour and left at room temperature for 1 hour. Thereafter, the secondary HRP conjugated antibody was reacted at room temperature for 30 minutes, washed three times with buffer solution, and treated with 50 μl of stop solution for each well, and then the optical density was measured at 450 nm with an ELISA microplate leader. The results of the measured expression reduction rate ([…]) were shown in Table 11, Table 12, FIG. 11 and FIG. 12 below.

CXCL8 (IL-8) = CXCL8 (IL-8) expression reduction in Gemcitabine-treated THP-1 cells (ELISA); type: cell-based, human; conditions: THP-1 cells; sample 100 μg/ml 1 h, then Gemcitabine 2 μg/ml 24 h
Method in brief: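 Human THP-1 macrophage-like cells in RPMI/10% FBS, plated at 1×10^6 cells/ml, pretreated 1 h with compound, then stimulated with Gemcitabine (2 μg/ml) for 24 h at 37° C, 5% CO2. Secreted IL-8 in the supernatant was measured by sandwich ELISA, read at 450 nm.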

IL-6 = assay: LPS-induced IL-6 secretion reduction in RAW264.7 cells (ELISA); type: cell-based, mouse; conditions: sample 100 μg/ml 1 h, then LPS 1 μg/ml 24 h, Table 2
Method: In DMEM (Dulbecco Modified Eagle Medium, Hyclone, Thermo Scientific) medium to which 10% Fetal Bovine Serum was added, RAW264.7 cells, a mouse macrophage family, were suspended at a concentration of 1×10^5 cells/ml, and culture was conducted in a 5% CO2 humidified incubator at 37° C. The cultured RAW264.7 cells were inoculated into a 48 well plate by 5×10^4 cells/ml and stabilized for 15 hours. Then, the culture solution was treated with a glycerol derivative compounds of the type shown in Table 2 and 3 below for 1 hour and then was treated with 1 μg/ml of Lipopolysaccaride (LPS) of a cell stimulator, and subsequent further incubation was conducted for 24 hours. Thereafter 0.5 ml of the culture supernatant was collected for each well and centrifuged (at 3000 rpm, 5 minutes) to recover the supernatant. The IL-6 level in the recovered supernatant was measured according to the manual provided by the Mouse IL-6 ELISA set (BD Biosciences). The day before ELISA was carried out, the IL-6 capture antibody was diluted in phosphate buffered saline, coated on a microwell, and then stored at 4° C. overnight. Each well was washed three times with a buffer solution and then blocked with 2% Bovine Serum Albumin (BSA) for 1 hour at room temperature. After washing with buffer solution three times, […] of sample was dispensed into each well and left at room temperature for 2 hours. Detection antibody which was washed 3 times with washing buffer solution and diluted was dispensed into each well and allowed to react at room temperature for 1 hour and left at room temperature for 1 hour. Thereafter, the secondary HRP conjugated antibody was reacted at room temperature for 30 minutes, washed three times with a buffer solution, and treated with 50 μl of stop solution for each well, and then the optical density was measured at 450 nm with an ELISA microplate leader. The results of the IL-6 expression reduction rate (IL-6 concentration) are shown in Table 2, Table 3, FIG. 1 and FIG. 2 below.

STAT3 = assay: IL-6-induced STAT3 activity, SEAP expression in HEK-Blue IL-6 cells; type: cell-based; conditions: HEK-Blue IL-6 cells; sample 100 μg/ml 1 h, then IL-6 5 ng/ml 24 h; negative control = 100
Method: HEK-Blue™ IL-6 cells were used to confirm STAT3 activity by STAT3-induced SEAP (secreted embryonic alkaline phosphatase) expression. In DMEM (Hyclone, Thermo Scientific) medium to which 10% Fetal Bovine Serum was added, HEK-Blue™ IL-6 cells were cultured at a concentration of 1×10^5 cells/ml, and maintained in a 5% CO2 humidified incubator at 37° C. The cultured HEK-Blue™ IL-6 cells were inoculated by 1×10^5 cells/ml. Then, the culture solution was treated with a glycerol derivative compounds of the type shown in Table 4 below for 1 hour and then IL-6 (5 ng/ml) was further incubated for 24 hours for STAT3 activity. Thereafter, the culture supernatant was collected for each well and centrifuged (at 3000 rpm, 5 minutes) to recover the supernatant. The SEAP expression level in the recovered supernatant was mixed with Quanti blue reagent and the supernatant at a ratio of 1:10 and left at 37° C. for about 30 minutes. Then, the SEAP concentration was confirmed at 650 nm wavelength using a spectrophotometer, and the results (STAT3 activity inhibitory ability) thereof are shown in Table 4 and FIG. 3 below.

With `CCCCC/C=C\C/C=C\CCCCCCCC(=O)OC(COC(=O)CCCCCCCCCCCCCCC)COC(C)OC` (centres unmarked) [EC_A70-1] the “Number of HL-60 cells migrated through Transwell” value (HL-60 cells) was 4047.1 Cell Number, the “IL-4 concentration (average ± deviation)” value (IL-4) was 865.6 ± 127.9 pg/µL and the “CXCL8 [IL-8] concentration (average ± deviation)” value (CXCL8 (IL-8)) was 200.1 ± 1.0 pg/µL. The “IL-6 concentration (average ± deviation)” value (IL-6) was 0.144 ± 0.028 µg/mL and the “STAT3 activity_SEAP expression(%) (average ± deviation)” value (STAT3) was 259.5 ± 28.4%.

From US12187672B2, “1,2-diacylglycerol compound, preparation method therefor, and immunomodulator containing same as active ingredient” (ENZYCHEM LIFESCIENCES CORPORATION, priority 2018, dated 2025)
